System: 817829-284-R-J1-PDC complex spheroid viability
Assay: Anticancer human tumor 817829-284-R-J1-PDC patient-derived colon adenocarcinoma cell line growth inhibition [POLQ]
Conditions: for IC50: curve of first compound; for viability, T/C: stronger effect = lower value
Procedure, shortened: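 Three-cell-type spheroids modelling solid tumor plus stroma served as the readout system; POL inhibitors were tested individually and in combination, concentration ranges set by clinical Cmax where known.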
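Also: spheroids exposed to compounds for 7 days.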
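For viability, T/C in this document: 100% = DMSO vehicle-treated spheroids.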

`C=CCn1c(=O)c2cnc(Nc3ccc(N4CCN(C)CC4)cc3)nc2n1-c1cccc(C(C)(C)O)n1` + Nc1ccc(C#CCN(C(=O)Cc2ncc(C(F)(F)F)cc2C(F)(F)F)c2ccc(F)cc2)nn1 was tested, and the IC50 (second compound 0.0316 µM) was 0.258 µM, the IC50 (second compound 0.1 µM) was 0.219 µM and the IC50 (second compound 0.316 µM) was 0.214 µM. For the same compound, the IC50 (second compound 1 µM) was 0.259 µM, the IC50 (second compound 3.16 µM) was 0.198 µM and the IC50 (second compound 10 µM) was 0.236 µM. The viability, T/C (second compound 0.0316 µM, first compound 0.00316 µM) was 90.9%, the viability, T/C (second compound 0.0316 µM, first compound 0.01 µM) was 118% and the viability, T/C (second compound 0.0316 µM, first compound 0.0316 µM) was 97.2%. It also gave a viability, T/C (second compound 0.0316 µM, first compound 0.1 µM) of 72.6%, a viability, T/C (second compound 0.0316 µM, first compound 0.316 µM) of 47% and a viability, T/C (second compound 0.0316 µM, first compound 1 µM) of 5.79%. For the same compound, the viability, T/C (second compound 0.1 µM, first compound 0.00316 µM) was 103%, the viability, T/C (second compound 0.1 µM, first compound 0.01 µM) was 103% and the viability, T/C (second compound 0.1 µM, first compound 0.0316 µM) was 83.6%. For the same compound, the viability, T/C (second compound 0.1 µM, first compound 0.1 µM) was 79.9%, the viability, T/C (second compound 0.1 µM, first compound 0.316 µM) was 36% and the viability, T/C (second compound 0.1 µM, first compound 1 µM) was 6.74%. The viability, T/C (second compound 0.316 µM, first compound 0.00316 µM) was 90.6%, the viability, T/C (second compound 0.316 µM, first compound 0.01 µM) was 113% and the viability, T/C (second compound 0.316 µM, first compound 0.0316 µM) was 87.8%. It also gave a viability, T/C (second compound 0.316 µM, first compound 0.1 µM) of 78%, a viability, T/C (second compound 0.316 µM, first compound 0.316 µM) of 36.1% and a viability, T/C (second compound 0.316 µM, first compound 1 µM) of 5.29%. For the same compound, the viability, T/C (second compound 1 µM, first compound 0.00316 µM) was 110%, the viability, T/C (second compound 1 µM, first compound 0.01 µM) was 115% and the viability, T/C (second compound 1 µM, first compound 0.0316 µM) was 85.5%. The viability, T/C (second compound 1 µM, first compound 0.1 µM) was 82.4%, the viability, T/C (second compound 1 µM, first compound 0.316 µM) was 42.2% and the viability, T/C (second compound 1 µM, first compound 1 µM) was 5.43%. The viability, T/C (second compound 3.16 µM, first compound 0.00316 µM) was 93.7%, the viability, T/C (second compound 3.16 µM, first compound 0.01 µM) was 82.2% and the viability, T/C (second compound 3.16 µM, first compound 0.0316 µM) was 100%. It also gave a viability, T/C (second compound 3.16 µM, first compound 0.1 µM) of 75.2%, a viability, T/C (second compound 3.16 µM, first compound 0.316 µM) of 31.8% and a viability, T/C (second compound 3.16 µM, first compound 1 µM) of 5.58%. For the same compound, the viability, T/C (second compound 10 µM, first compound 0.00316 µM) was 90.7%, the viability, T/C (second compound 10 µM, first compound 0.01 µM) was 105% and the viability, T/C (second compound 10 µM, first compound 0.0316 µM) was 89.7%. The viability, T/C (second compound 10 µM, first compound 0.1 µM) was 80.7%, the viability, T/C (second compound 10 µM, first compound 0.316 µM) was 39.7% and the viability, T/C (second compound 10 µM, first compound 1 µM) was 5.43%.
In the case of `CC(=O)O[C@H]1C(=O)[C@@]2(C)[C@H]([C@H](OC(=O)c3ccccc3)[C@]3(O)C[C@H](OC(=O)[C@H](O)[C@@H](NC(=O)c4ccccc4)c4ccccc4)C(C)=C1C3(C)C)[C@]1(OC(C)=O)CO[C@@H]1C[C@@H]2O` + Nc1ccc(C#CCN(C(=O)Cc2ncc(C(F)(F)F)cc2C(F)(F)F)c2ccc(F)cc2)nn1, the IC50 (second compound 0.0316 µM) is reported as < 0.00949 µM, the IC50 (second compound 0.1 µM) is reported as < 0.00949 µM and the IC50 (second compound 0.316 µM) is reported as < 0.00949 µM. The IC50 (second compound 1 µM) was < 0.00949 µM, the IC50 (second compound 3.16 µM) was < 0.00949 µM and the IC50 (second compound 10 µM) was < 0.00949 µM. The viability, T/C (second compound 0.0316 µM, first compound 0.00949 µM) was 5.03%, the viability, T/C (second compound 0.0316 µM, first compound 0.03 µM) was 3.67% and the viability, T/C (second compound 0.0316 µM, first compound 0.0949 µM) was 3.6%. For the same compound, the viability, T/C (second compound 0.0316 µM, first compound 0.3 µM) was 4.54%, the viability, T/C (second compound 0.0316 µM, first compound 0.949 µM) was 3.38% and the viability, T/C (second compound 0.0316 µM, first compound 3 µM) was 3.49%. For the same compound, the viability, T/C (second compound 0.1 µM, first compound 0.00949 µM) was 4.54%, the viability, T/C (second compound 0.1 µM, first compound 0.03 µM) was 3.69% and the viability, T/C (second compound 0.1 µM, first compound 0.0949 µM) was 3.4%. The viability, T/C (second compound 0.1 µM, first compound 0.3 µM) was 3.32%, the viability, T/C (second compound 0.1 µM, first compound 0.949 µM) was 3.65% and the viability, T/C (second compound 0.1 µM, first compound 3 µM) was 3.64%. For the same compound, the viability, T/C (second compound 0.316 µM, first compound 0.00949 µM) was 4.71%, the viability, T/C (second compound 0.316 µM, first compound 0.03 µM) was 3.72% and the viability, T/C (second compound 0.316 µM, first compound 0.0949 µM) was 3.26%. The viability, T/C (second compound 0.316 µM, first compound 0.3 µM) was 3.47%, the viability, T/C (second compound 0.316 µM, first compound 0.949 µM) was 3.51% and the viability, T/C (second compound 0.316 µM, first compound 3 µM) was 3.52%. The viability, T/C (second compound 1 µM, first compound 0.00949 µM) was 4.2%, the viability, T/C (second compound 1 µM, first compound 0.03 µM) was 4.2% and the viability, T/C (second compound 1 µM, first compound 0.0949 µM) was 3.64%. For the same compound, the viability, T/C (second compound 1 µM, first compound 0.3 µM) was 3.16%, the viability, T/C (second compound 1 µM, first compound 0.949 µM) was 3.49% and the viability, T/C (second compound 1 µM, first compound 3 µM) was 3.91%. It also gave a viability, T/C (second compound 3.16 µM, first compound 0.00949 µM) of 3.91%, a viability, T/C (second compound 3.16 µM, first compound 0.03 µM) of 3.81% and a viability, T/C (second compound 3.16 µM, first compound 0.0949 µM) of 3.99%. The viability, T/C (second compound 3.16 µM, first compound 0.3 µM) was 3.89%, the viability, T/C (second compound 3.16 µM, first compound 0.949 µM) was 3.75% and the viability, T/C (second compound 3.16 µM, first compound 3 µM) was 3.61%. The viability, T/C (second compound 10 µM, first compound 0.00949 µM) was 4.68%, the viability, T/C (second compound 10 µM, first compound 0.03 µM) was 3.73% and the viability, T/C (second compound 10 µM, first compound 0.0949 µM) was 3.81%. The viability, T/C (second compound 10 µM, first compound 0.3 µM) was 3.76%, the viability, T/C (second compound 10 µM, first compound 0.949 µM) was 3.38% and the viability, T/C (second compound 10 µM, first compound 3 µM) was 3.83%.
